Results taken from patent US20190167593A1, “C[…] PHARMACEUTICALLY ACCEPTABLE SALT THEREOF, AND APPLICATION OF SAME” (priority 2016, published 2019).
Converted amounts (≈) assume the structure as drawn. Read-outs that look alike come from different tables or passages of the source.

Key:
[1] = system: A/Puerto Rico/8/34 (H1N1) (PR8); test: organism not typed; type: cell-based; conditions: MDCK cells, crystal violet staining, 3 days, read-out: IC50 against influenza virus replication (plaque formation), PR8
[2] = system: influenza virus PR8; conditions: mouse, in vivo
[3] = physchem; type: physicochemical; conditions: molar ratio compound:acid as listed per salt
[4] = physchem; type: physicochemical; conditions: Non-lactic acid

Molecule | IC50 ([1]; phosphate) [nM] | IC50 ([1]; MDCK, 72 h) [nM] | disease symptoms [2] | IC50 [1] [nM] | PH VALUE OF THE SOLUTION [3] | solubility ([3]; water, unit printed in b135 only) [µg/mL] | pH VALUE [4] | solubility ([4]; pH 7.8) [µg/mL] | IC50 ([1]; listed as COMPOUND TO BE TESTED OF FORMULA I) [nM] | body weight [2]
CCOC(=O)C1=C[C@@H](OC(CC)CC)[C@H](NC(C)=O)[C@@H](N)C1.O=P(O)(O)O [Oseltamivir phosphate, ethyl (3R, 4R, 5S)-4-acetamido-5-amino-3-(1-ethylpropoxy)-1-cyclohexene-1-carboxylate phosphate] | 133 | 130 | obvious disease symptoms |  |  |  |  |  |  | 
Peramivir |  |  |  | 17.6 |  |  |  |  |  | 
CCCCS(=O)(=O)N[C@@H]1CCCN([C@@H]2C=C(C(=O)O)C[C@H](NC(=N)N)[C@H]2NC(C)=O)C1 [(3R,4R,5S)-4-acetamido-5-guanidino-3-((3R)-3-n-butylsulfonamidopiperidin)-1-cyclohexene-1-carboxylic acid] |  | 250 |  |  | 7.8 | 2500 | 7.8 | 2500 (≈ 5.45 mM) | 252 | slightly decreased
